Values joined by “and” are separate entries in the source; they are usually repeats but may differ in a detail not shown here. Identical values can stand only once. Like-named read-outs stand apart in the source and are kept apart here.
Legend:
[1] = biological target: T1, BKCa channel (Homo sapiens, UniProt Q12791); experiment: Whole-cell patch-clamp recording of BKCa currents in cultured human CSM cells; type: cell-based; details: for activation of outward rectifying K+ currents (whole-cell), increase vs. control: at +60 mV
T1 construct: Homogeneous explant cell cultures of human corporal smooth muscle (CSM) cells were prepared; endogenous in cells; host or cells: primary explant cultures of human corporal smooth muscle (CSM) cells from erectile dysfunction patients
T1 sequence (Q12791 whole entry): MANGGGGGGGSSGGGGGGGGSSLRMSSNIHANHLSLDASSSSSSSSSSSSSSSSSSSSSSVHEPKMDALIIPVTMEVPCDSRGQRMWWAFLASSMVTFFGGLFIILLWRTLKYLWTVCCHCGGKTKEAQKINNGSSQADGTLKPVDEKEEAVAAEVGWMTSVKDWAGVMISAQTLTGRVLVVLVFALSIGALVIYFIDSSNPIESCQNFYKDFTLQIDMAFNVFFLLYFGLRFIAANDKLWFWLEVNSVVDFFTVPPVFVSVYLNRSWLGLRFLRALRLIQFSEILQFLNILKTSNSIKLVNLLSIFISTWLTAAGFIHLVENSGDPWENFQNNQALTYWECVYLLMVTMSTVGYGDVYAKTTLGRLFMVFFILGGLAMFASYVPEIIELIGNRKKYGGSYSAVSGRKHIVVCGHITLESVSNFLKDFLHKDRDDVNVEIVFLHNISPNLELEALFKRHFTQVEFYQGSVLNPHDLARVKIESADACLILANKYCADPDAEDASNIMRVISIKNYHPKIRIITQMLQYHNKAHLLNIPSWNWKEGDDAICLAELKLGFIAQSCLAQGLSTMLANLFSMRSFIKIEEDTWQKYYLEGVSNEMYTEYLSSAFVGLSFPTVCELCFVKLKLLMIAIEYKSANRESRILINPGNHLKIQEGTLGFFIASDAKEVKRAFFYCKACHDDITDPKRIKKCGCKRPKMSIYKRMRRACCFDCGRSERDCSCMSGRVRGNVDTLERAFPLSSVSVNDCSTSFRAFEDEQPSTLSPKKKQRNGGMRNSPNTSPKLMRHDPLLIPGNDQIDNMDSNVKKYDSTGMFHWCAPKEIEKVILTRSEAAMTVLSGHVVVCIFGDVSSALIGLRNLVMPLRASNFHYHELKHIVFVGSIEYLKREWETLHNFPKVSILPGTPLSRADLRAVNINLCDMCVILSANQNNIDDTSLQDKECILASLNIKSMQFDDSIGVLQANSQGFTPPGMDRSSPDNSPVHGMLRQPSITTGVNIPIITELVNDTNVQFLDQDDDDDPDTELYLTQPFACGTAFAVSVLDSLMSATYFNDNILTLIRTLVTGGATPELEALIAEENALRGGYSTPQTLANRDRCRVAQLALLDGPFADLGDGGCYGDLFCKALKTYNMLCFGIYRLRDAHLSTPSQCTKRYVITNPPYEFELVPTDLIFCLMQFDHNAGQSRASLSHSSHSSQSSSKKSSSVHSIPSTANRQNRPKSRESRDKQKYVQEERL
Description: Human corporal tissues were obtained from the corpus cavernosa of patients with organic erectile dysfunction undergoing implantation of penile prostheses. Homogeneous explant cell cultures of human corporal smooth muscle (CSM) cells were prepared as follows (Palmer et al., 1994; Sung et al., 2011). Radial sections of approximately 3×3×10 mm were excised from the mid-penile shafts of the respective resected sample. These samples were tissues including smooth muscles, endothelium, and connective tissues, with occasional nerve fibers. The tissues were washed, cut into 1-2 mm pieces, and placed in tissue culture dishes filled with Dulbecco's modified Eagle's medium (DMEM, Gibco, Carlsbad, Calif., USA) supplemented with 10% fetal bovine serum and antibiotics (100 units/mL penicillin, streptomycin; Gibco), under 5% O2 and 5% CO2. After the explants were attached to the substrate (usually 1-2 days), additional medium was added. The smooth muscle cells were observed migrating from the explants, and underwent division. The cells were subsequently detached via a trypsin/EDTA protocol to establish secondary cultures from the explants. These cultures were morphologically homogeneous. The cobblestone morphology, which is the characteristic of endothelial cells, and the flattened and spread-out shape, which is the characteristic of fibroblasts, were not observed. Cellular homogeneity was further verified by observing smooth muscle-specific α-actin and myosin immuno-responsiveness. While the cultures were maintained for four or more passages, all measured pharmacological and molecular properties were evaluated in the intact tissues that were maintained in the cultures, for example, cyclic adenosine monophosphate formation (Palmer et al., 1994), calcium mobilization (Zhao and Christ, 1995), expression or function of the gap junction protein, connexin (Brink et al., 1996), and K+ channel activity (Lee et al., 1999).
The Ca^2+-activated potassium channel (BKCa) was measured by using the conventional whole-cell patch-clamp technique (Sung et al., 2011). Patch electrodes were made from borosilicate glass capillary tubing (World Precision Instruments, Sarasota, Fla., USA), and had 2.5-5 MO resistance. The cell suspension was placed into a small chamber (0.6 ml) on the stage of an inverted microscope (TMD Diaphot, Nikon, Tokyo, Japan). The membrane currents in smooth muscle cells were recorded using a patch clamp amplifier (Axopatch-1 D, Axon Instruments, Foster City, Calif., USA). The liquid junction potential between the pipette solution and the bath solution was only about 3 mV, and thus uncorrected. In each experiment, whole-cell configuration was not achieved until the seal resistance became larger than 5 GO. The pCLAMP software (Axon Instruments) and Digidata-1322A (Axon Instruments) were used for data acquisition and application of command pulses. Membrane currents were measured during ramping, and filtered at 5 kHz (−3 dB frequency). The current signals were filtered at 5 kHz, digitized, and analyzed on a personal computer using pCLAMP and Origin software (Microcal Software, Northampton, Mass., USA). The standard bath solution was prepared to contain 135 mmol NaCl, 5 mmol KCl, 10 mmol HEPES, 1.8 mmol CaCl2, 1 mmol MgCl2, and 5 mmol glucose, per liter, at pH 7.4 adjusted with NaOH. The pipette (internal) solution was prepared to contain, per liter, 140 mmol KCl, 10 mmol HEPES, 5 mmol K2ATP, 2 mmol MgCl2, 5 mmol ethyleneglycol-bis-[2-aminoethyl ether]-N,N′-tetraacetic acid (EGTA), and 0.5 mmol GTP, at pH 7.2 adjusted with KOH. The Ca^2+-free concentration in the pipette solution was adjusted to 3.15 nM by adding an appropriate amount of CaCl2, determined using the Max Chelator Sliders software (C. Patton, Stanford University).

[2] = tested on: aortic rings of rats; details: cited from earlier work
[3] = tested on: erectile function of rats; experiment: In vivo cavernous nerve stimulation model, erectile response; parameters: species or system Sprague-Dawley rats
Description: (§1) The erectile response was measured using Sprague-Dawley rats. The detailed methodology of measuring the erectile response has been described previously (Rehman et al., 1997). The 8-10 wk aged rats were anesthetized with intramuscular injection of Zoletil 100 mg/kg (Virbac, Carros, France), and placed on a thermally regulated surgical table. Systemic arterial blood pressure (ABP) was monitored via carotid artery cannulation (polyethylene-50 tubing). The prostate and bladder were exposed through a midline abdominal incision. The major pelvic ganglion, pelvic nerves, and cavernous nerve were identified as posterolateral to the prostate on each side. An electric stimulator with stainless steel bipolar hook electrodes was placed around the cavernous nerve for electrical stimulation. To monitor intracavernosal pressure (ICP), a 25-gauge cannula was filled with […], connected to polyethylene-50 tubing, and inserted into one side of the crura. Systemic arterial blood pressure (ABP) and intracavernosal pressure (ICP) were measured with a transducer connected to a PowerLab® (AD Instruments, Colorado Spring, Colo., USA), which is a computerized system for data acquisition. Real-time display and documentation of pressure were conducted with Chart™ 6 software. Sub-maximal electrical field stimulation (EFS) was used with 1 V, 2 Hz, 5 ms pulse width, and duration of 60 seconds. Sub-maximal electrical field stimulation was applied 10 min after a series of control (buffer solution alone), LDD175 (10 mg/kg), and udenafil (1 mg/kg) injections. At the end of sub-maximal stimulation, the full response was measured using the EFS of 6 V, 10 Hz, 5 ms pulse width, with duration of 60 seconds. Buffer solution, LDD175, and udenafil were administered at intervals of 30 min. The ratio of maximal ICP to mean arterial BP at the peak of the erectile response was calculated in order to control for variations in ABP.

[4] = tested on: rat model with diabetic erectile dysfunction; experiment: Diabetic erectile dysfunction rat model (streptozotocin), intracavernosal pressure; type: in vivo, Sprague-Dawley rats; details: for maximal ICP/ABP ratio: 5 V
Description: as §1
The 8-wk aged male Sprague-Dawley rats were administered with an intraperitoneal injection of streptozotocin (65 mg/kg body weight) dissolved in 5 mM citric acid buffer (pH 4.5), thereby inducing insulin dependent diabetes mellitus (IDDM). Rats of the normal control were injected with only 5 mM citric acid buffer (pH 4.5) by the same method. On day 2 of breeding, the rats were fasted for 16 hours, and the blood was collected from the tail vein to conduct the blood glucose test. Only rats with a blood glucose level of 250 mg/de or higher were selected for a diabetes induced group.

[5] = tested on: BP and heart rate; details: cited from earlier work
[6] = tested on: rabbit corporal smooth muscle (CSM) strip; experiment: Organ bath relaxation of phenylephrine-pre-contracted rabbit corpus cavernosal strips; parameters: species or system New Zealand white rabbits; details: for relaxation, % of the phenylephrine (PE)-induced contraction: concentration-response; for % relaxation of the phenylephrine-induced contraction: synergy experiment
From the text: Sexually mature male New Zealand white rabbits (3.0±0.3 kg) were killed with an air embolism in the ear vein. The entire penis was then surgically excised, and then cleaned by removing the […] and urethra. Then, the corporal tissue was carefully dissected from the surrounding tunica. Four corpus cavernosal strips with approximately equal sizes (2×2×10 mm) were obtained from each penis.
Rabbit corpus cavernosal strips were separately prepared for organ-bath studies. Each corporal strip was mounted in a 10 ml-organ chamber filled with Krebs buffer (composition in mmol/l: 118.4 NaCl, 4.7 KCl, 2.5 CaCl2, 1.2 KH2PO4, 1.2 MgSO4, 24.9 NaHCO3, and 11.1 D-glucose), with one end fixed to a tissue holder and the other secured to a force transducer. The force transducer was connected to an appropriately calibrated four-channel polygraph (Power-Lab; AD Instruments, Sydney, NSW, Australia), in which the transducer output was recorded. The corpus cavernosal strips were kept in the organ bath with Krebs solution maintained at 36.5° C. by a thermo-regulated water circuit and by continuously bubbling with a mixture of 95% O2 and 5% CO2. Each corporal strip was stretched to an optimal isometric tension of 1.0 g and was equilibrated for 60 min. During the equilibration, the tissues were washed with fresh Krebs solution every 15 min, and the tension was adjusted if necessary.
The vasodilatory effect of LDD175 was studied by cumulative addition of the sample at concentrations ranging from 10^−7 to 10^−4 M to endothelium-intact strips and endothelium-denuded strips after pre-contraction with 10^−5 M phenylephrine (PE). The endothelial lining of the corpus cavernosum was removed by rubbing the strip between the thumb and index finger for 20 seconds and soaking the same in 0.3% solution of 3[(3-cholamidopropyl)-dimethylammonio]-l-propanesulphonate (CHAPS) for 10 seconds. It was confirmed whether the endothelium was functionally completely removed for all strips by pre-contracting the strips with 10^−5 M […] PE and then adding acetylcholine (10^−6 M) thereto. […] After the addition of IbTX, LDD175 was added to strips pre-contracted with PE. The relaxation effect of the PDE5 inhibitor (udenafil, 10^−6 and 10^−5 M) was also separately measured in the same manner, and compared to that of LDD175. The synergistic relaxation effect between 10^−5 M LDD175 and 10^−6 M udenafil was also investigated.

[7] = sub-maximal EFS, intravenous LDD175 10 mg/kg, n=8

In the case of `O=C(O)c1ccc(Cl)c2c1[nH]c1c3ccc(C(F)(F)F)cc3oc12` [LDD175, 4-chloro-7-trifluoromethyl-10H-benzo[4,5]furo[3,2-b]indole-1-carboxylic acid], the peak current density ([1]; 0.1 μM, +60 mV, n=10) is reported as 30.9±6.5 pA/pF, the peak current density ([1]; 1 μM, +60 mV, n=10) is reported as 45.1±8.2 pA/pF and the peak current density ([1]; 10 μM, +60 mV, n=10) is reported as 178.5±30.0 pA/pF. For the same compound, the peak current density ([1]; 30 μM, +60 mV, n=10) was 257.3±48.3 pA/pF, the “activation of outward rectifying K+ currents (whole-cell), increase vs. control” value ([1]; 30 μM) was 952.1% and the peak current density ([1]; 30 μM, −40 mV) was 23.9±5.8 pA/pF. For the same compound, the “peak current density, fold vs. control” value ([1]; 30 μM, −40 mV) was 42.8 fold, the peak current density ([1]; 100 μM, +60 mV, n=10) was 265.5±53.4 pA/pF and the “relaxation of aortic rings” value [2] was “not relaxed”. For the same compound, the “BP fluctuation and hemodynamical instability” value ([3]; during in vivo cavernous nerve stimulation) was “not observed”, the “area under curve (AUC) of ICP/ABP ratio” value [3, 7] was 1444.4±133.3 and the “maximal ICP” value [3, 7] was 57.8±6.6 mmHg. The “maximal ICP/ABP ratio” value [3, 7] was 45.3±5.8%, the intracavernosal pressure ([4]; LDD175 5 mg/kg and 10 mg/kg injection groups, 10 mg/kg more effective than 5 mg/kg) was “significantly increased” and the “effect of LDD175 on intracavernosal pressure after BKCa channel inhibitor” value ([4]; TEA 30 mg/kg injected, after 10 minutes LDD175 10 mg/kg) was “completely inhibited”. For the same compound, the “BP and heart rate changes following intravenous administration” value ([5]; 10 mg/kg LDD175, intravenous) was “did not cause significant changes”, the “adverse cardiovascular effects in in vivo animal experiments” value ([5]; rat, in vivo) was “no significant adverse cardiovascular effects” and the relaxation response ([6]; 10^−4 M LDD175, denuded endothelium, n=10) was 41.0±4.9%. The relaxation response ([6]; 10^−4 M LDD175, intact endothelium, n=7) was 45.9±6.2%, the “relaxation response after IbTX pretreatment” value ([6]; 10^−4 M LDD175, strips pre-treated with 100 nM IbTX for 30 minutes, n=7) was 23.6±3.3% and the “relaxation, % of the phenylephrine (PE)-induced contraction” value (“relaxation, % of the phenylephrine” for short) ([6]; 10^−4 M) was 54.0±3.0% and 54.0±3.1%. The “% relaxation of the phenylephrine-induced contraction” value ([6]; 10^−5 M alone, n=7) was 32.7±3.8%, the “relaxation, % of the phenylephrine” value ([6]; 10^−5 M) was 26.3±2.0% and the “relaxation, % of the phenylephrine” value ([6]; 10^−6 M) was 14.5±2.6%. For the same compound, the “relaxation, % of the phenylephrine” value ([6]; 10^−7 M) was 3.7±1.4%.
For `O=c1[nH]c2cc(C(F)(F)F)ccc2n1-c1cc(C(F)(F)F)ccc1O` [NS1619, reference compound], the “activation of outward rectifying K+ currents (whole-cell), increase vs. control” value ([1]; 30 μM) was 880.0%, the peak current density ([1]; 30 μM, −40 mV) was 1.5±0.6 pA/pF and the “peak current density, fold vs. control” value ([1]; 30 μM, −40 mV) was 1.3 fold.
In the case of `CC[N+](CC)(CC)CC` [TEA, tetraethylammonium, reference compound], the “suppression of LDD175-activated K+ currents” value [1] is reported as 78.2%.
In the case of `CCCc1nn(C)c2c(=O)[nH]c(-c3cc(S(=O)(=O)N4CCN(C)CC4)ccc3OCC)nc12` [sildenafil], the “maximal ICP/ABP ratio” value ([4]; 1 mg/kg, n=6) is reported as 55.4±5.2 and the “maximal ICP/ABP ratio” value ([4]; 5 mg/kg, n=7) is reported as 69.9±5.4.
With `CCCOc1ccc(S(=O)(=O)NCCC2CCCN2C)cc1-c1nc2c(CCC)nn(C)c2c(=O)[nH]1` (stereo not drawn) [udenafil, reference compound] the “effect on maximal ICP, maximal ICP/ABP ratio and AUC of ICP/ABP ratio compared with 10 mg/kg LDD175” value ([3]; 1 mg/kg udenafil, sub-maximal EFS) was “no difference”, the “relaxation, % of the phenylephrine” value ([6]; 10^−5 M) was 67.1±1.7% and the “% relaxation of the phenylephrine-induced contraction” value ([6]; 10^−6 M alone, n=7) was 21.6±2.7%. The “relaxation, % of the phenylephrine” value ([6]; 10^−6 M) was 34.5±3.9%.
With “iberiotoxin (QFTDVDCSVSKECWSVCKDLFGVDRGKCMGKKCRCYQ; UniProt P24663 1-37, looked up) [IbTX, reference compound]” the “suppression of LDD175-activated K+ currents” value ([1]; 100 nM IbTX, n=4) was 78.1%.

Source: patent publication US20160235710A1, “COMPOSITION FOR TREATING OR PREVENTING ERECTILE DYSFUNCTION COMPRISING LDD175 AS ACTIVE INGREDIENT” (ANYGEN, INC., priority 2015, published 2016)
